Columns and labels:
[1] = tested on: MDA-MB-231 cells (non-hormone-dependent breast cancer cells); conditions: read-out: Antiproliferative effect (IC50)
Experimental: (§1) The antiproliferative effects of compounds of the invention were tested on MDA-MB-231 cells, which are non-hormone-dependent breast cancer cells, on PC-3 cells, which are non-hormone-dependent prostate cancer cells and on MCF-7 cells, which are hormone-dependent breast cancer cells.
(§2) The experimental method used for this test is described in Hillard E. A. et al. Chem. Med. Chem. 2006, 1, 551-559.

[2] = tested on: MCF-7 cells (hormone-dependent breast cancer cells containing ERα); test: Proliferative/antiproliferative effect on MCF-7 cells; type: cell-based; conditions: for proliferative effect based on the control: MCF-7, without phenol red, 10^−8M; for IC50: MCF-7, approximate, estrogen effect plus cytotoxic activity, read-out: IC50 on MCF-7 line (converted)
From the text: The purely cytotoxic effect appears at higher concentrations where the resultant of the two components (estrogen effect plus cytotoxic activity) is therefore evidenced. It is thus difficult to achieve very accurate IC50 values for the MCF-7 line.

[3] = tested on: PC-3 cells (non-hormone-dependent prostate cancer cells); conditions: read-out: Antiproliferative effect (IC50)
Experimental: as §1, §2

Row | Compound | IC50 [1] [nM] | proliferative effect based on the control [2] [%] | IC50 [2] [nM] | IC50 [3] [nM]
1 | 1,1′-[1-[1,1-bis(4-hydroxyphenyl)methylidene]-2-methyltrimethylene]ferrocene [Compound 11] | 630 |  |  | 
2 | 1,1′-[1-[1,1-bis(4-hydroxyphenyl)methylidene]trimethylene]ferrocene [Compound 4] | 80 | 162 | ~4000 | 940
3 | 1,1′-[1-[(4-hydroxyphenyl)(phenyl)-methylidene]trimethylene]ferrocene [Compound 12] | 470 |  |  | 
4 | 1,1′-[2-[1,1-bis(4-hydroxyphenyl)methylidene]trimethylene]ferrocene [Compound 5] | 960 |  | ~1000 | 1080
5 | 1,2-[1-[1,1-bis(4-hydroxyphenyl)methylidene]tetramethylene]-ferrocene [Compound 9] | 500 |  |  | 
6 | 1,2-[1-[1,1-bis(4-hydroxyphenyl)methylidene]trimethylene]ferrocene [Compound 8] | 2700 |  |  | 
7 | C[C@]12CC[C@@H]3c4ccc(O)cc4CC[C@H]3[C@@H]1CC[C@@H]2O [estradiol, reference compound] |  | 264 |  | 
8 | (R)-1,1′-[1-[1,1-bis(4-hydroxyphenyl)methylidene]-3-methyltrimethylene]ferrocene [Compound 7] | 780 |  |  | 
9 | (S)-1,1′-[1-[1,1-bis(4-hydroxyphenyl)methylidene]-3-methyltrimethylene]ferrocene [Compound 6] | 2700 |  |  | 
